{"source": "patent US11313861B2", "about": "“Method of evaluating hepatic glucose uptake capacity” (OTSUKA PHARMACEUTICAL CO., LTD., priority 2016, dated 2022)", "key": {"[1]": {"experiment": "Blood ^13C6-glucose level and expired air Δ^13C after oral ^13C6-glucose, 7-week-old ZDF fatty vs ZDF lean rats", "format": "in vivo, rat", "experimental": "(§1) To fasted ZDF fatty rats (7 weeks old; n=4) and ZDF lean rats (7 weeks old; n=4) 10 mg/kg of ^13C6-glucose was orally administered. Blood samples and expired air samples were collected over time before and after the administration. The Δ^13C values of the obtained expired air samples were measured by GC/MS. The ^13C6-glucose levels in the blood samples were measured by LC/MS/MS. The fasting blood glucose levels were measured before the glucose administration."}, "[2]": {"conditions": "rat, in vivo, 10 mg/kg", "experimental": "To unfasted ZDF fatty rats (18 weeks old; n=6), ZDF lean rats (18 weeks old; n=6) and SD rats (14 weeks old; n=3) 10 mg/kg of ^13C6-glucose was orally administered. Expired air samples were collected over time before and after the administration and the Δ^13C values of the samples were measured by GC/MS. Three days after the oral administration, 10 mg/kg of ^13C6-glucose was intravenously administered to the same unfasted rats. Expired air samples were collected over time before and after the administration and the Δ^13C values of the samples were measured by GC/MS.\nThe AUCs of the Δ^13C values were calculated for the oral administration and the intravenous administration, and the difference of the AUCs was calculated. The difference is shown in FIG. 5 as the amount of hepatic glucose uptake (hepatic extraction). […] The mutation is homozygous in the ZDF fatty rats."}, "[3]": {"experiment": "Blood ^13C6-glucose level and expired air Δ^13C after oral ^13C6-glucose, 6-week-old ZDF fatty vs ZDF lean rats", "format": "in vivo, rat", "experimental": "as §1, with “fatty rats (6 weeks old;” for “fatty rats (7 weeks old;”, “lean rats (6 weeks old;” for “lean rats (7 weeks old;”, “of ^13C6-glucose (13C6-Glucose [D-GLUCOSE⋅(U-13C6, 99%)], Cambridge Isotope Laboratories, Inc. (Andover, Mass., USA)) was orally” for “of ^13C6-glucose was orally”"}, "[4]": {"conditions": "rat, in vivo, po, 10 mg/kg", "experimental": "To unfasted rats (ZDF lean, ZDF fatty, SD, each n=12) 10 mg/kg of ^13C6-glucose was orally administered. […] The blood ^13C6-glucose level was measured by LC/MS/MS."}, "[5]": {"experiment": "Blood ^13C6-glucose level and expired air Δ^13C after oral ^13C6-glucose, iLIRKO vs IRflox mice", "format": "in vivo, mouse", "from_the_text": "iLIRKO mouse (inducible liver-specific insulin receptor KO mice) can be used as a model for stage B of pre-onset diabetes, the stage of decreased hepatic extraction ratio, because knock out of insulin receptors can be induced only in the liver (Michael M D, et al., Loss of insulin signaling in hepatocytes leads to severe insulin resistance and progressive hepatic dysfunction. Mol Cell 2000; 6 (1): 87-97). To iLIRKO mice (2 to 3 months old, n=5) and IRflox mice (2 to 3 months old, n=5, control) 10 mg/kg of ^13C6-glucose was orally administered. Blood samples and expired air samples were collected over time before and after the administration. The Δ^13C values of the obtained expired air samples were measured by GC/MS. The ^13C6-glucose levels in the blood samples were measured by LC/MS/MS."}}, "data": [{"compound": "OC[C@H]1OC(O)[C@H](O)[C@@H](O)[C@@H]1O", "note": "(stereo partly drawn) [^13C6-glucose, D-GLUCOSE⋅(U-13C6, 99%)]", "values": [{"measurement": "blood ^13C6 glucose levels", "setting": "[1]; fasted 7-week-old ZDF fatty rats vs ZDF lean rats, 10 mg/kg oral, LC/MS/MS", "result": "remained higher than those of the ZDF Lean rats"}, {"measurement": "Δ^13C values of the expired air samples", "setting": "[1]; rat, in vivo, po, 10 mg/kg", "result": "kept higher than those of the ZDF lean rats"}, {"measurement": "amount of hepatic glucose uptake (hepatic extraction), difference of the AUCs of Δ^13C between oral and intravenous administration", "setting": "[2]", "result": "high in order of the SD rats, the ZDF lean rats, and the ZDF fatty rats"}, {"measurement": "blood ^13C6 glucose levels", "setting": "[3]; fasted 6-week-old ZDF fatty rats vs ZDF lean rats, 10 mg/kg oral, LC/MS/MS", "result": "remained lower than those of the ZDF Lean rats"}, {"measurement": "Δ^13C values of the expired air samples", "setting": "[3]; rat, in vivo, po, 10 mg/kg", "result": "kept higher than those of the ZDF lean rats"}, {"measurement": "hepatic extraction ratio of ^13C6-glucose", "setting": "[4]", "result": "high in order of the SD rats, the ZDF lean rats, and the ZDF fatty rats"}, {"measurement": "blood ^13C6 glucose levels", "setting": "[5]; iLIRKO mice vs IRflox mice, 10 mg/kg oral, LC/MS/MS", "result": "kept higher than those of IRflox mice"}, {"measurement": "Δ^13C values of the expired air samples", "setting": "[5]; mouse, in vivo, po, 10 mg/kg", "result": "kept higher than those of IRflox mice"}]}]}
